Here are results for 4 molecules from US11896558B2, “Use of an RXR agonist and taxanes in treating Her2+ cancers” (Io Therapeutics, Inc., priority 2021, dated 2024).

“Also recorded” adds a separate entry of the source.

One data set has as its system RXR homodimers. Kind of data set: Activation of RXR homodimers. It counts as cell-based.
The next data set deals with LXR/RXR. Kind of data set: Activation of LXR/RXR heterodimer. The data set is classed as cell-based. The conditions noted are these: permissive heterodimer.
The subject of the next data set is PPAR/RXR. The data set is described as follows: Activation of PPAR/RXR heterodimer. It counts as cell-based. The conditions noted are these: permissive heterodimer.
The next data set concerns FXR/RXR. The data set is described as follows: Activation of FXR/RXR heterodimer. Particulars: permissive heterodimer.
The nature of data set [1]: Systemic concentrations after oral dosing in humans.
The subject of another data set is Nurr1/RXR heterodimer. The data set is described as follows: Activation of Nurr1/RXR heterodimer. The conditions noted are these: permissive heterodimer.
In a further data set the test system is RAR/RXR. The data set is described as follows: Activation of non-permissive RAR/RXR heterodimer. It counts as cell-based.
Another data set addresses RARβ (Homo sapiens, UniProt P10826). Particulars: β isoform.
For data set [2], the system named is Her2+ AU565 human breast cancer cell line. The data set is described as follows: Growth inhibition of AU565 cells, nuclei count. It counts as cell-based. The conditions noted are these: paclitaxel 2.5, 5 or 10 nM, IRX4204 10, 100 or 1000 nM, 6-10 days. On the procedure: After 6-10 days of treatment, cells were fixed with 4% paraformaldehyde. Nuclei were stained with DAPI, imaged using ImageXpress® Pico (Molecular Devices) and counted using CellReporterXpress® Analysis Software. Each data point represents the average of six replicates.
To assess whether the increased inhibition from the combination of agents was additive or synergistic, the Combination Index (CI) was calculated using the computational program CompuSyn (ComboSyn, Inc.).

Another data set deals with RARγ (Homo sapiens, UniProt P13631). The conditions noted are these: γ isoform.
The next data set concerns the target RARα (Homo sapiens, UniProt P10276). The conditions noted are these: α isoform.
A short description of data set [3]: Daily dosing of IRX4204 free acid in adult human. The data set is classed as in vivo.
In data set [4] the test system is PPAR/RXR, FXR/RXR, or LXR/RXR. The conditions noted are these: cited from earlier work.
Data set [5] relates to NSCLC (non-small cell lung cancer). Particulars: cited from earlier work.

Chain of RARα (P10276 whole entry, species assumed, canonical isoform): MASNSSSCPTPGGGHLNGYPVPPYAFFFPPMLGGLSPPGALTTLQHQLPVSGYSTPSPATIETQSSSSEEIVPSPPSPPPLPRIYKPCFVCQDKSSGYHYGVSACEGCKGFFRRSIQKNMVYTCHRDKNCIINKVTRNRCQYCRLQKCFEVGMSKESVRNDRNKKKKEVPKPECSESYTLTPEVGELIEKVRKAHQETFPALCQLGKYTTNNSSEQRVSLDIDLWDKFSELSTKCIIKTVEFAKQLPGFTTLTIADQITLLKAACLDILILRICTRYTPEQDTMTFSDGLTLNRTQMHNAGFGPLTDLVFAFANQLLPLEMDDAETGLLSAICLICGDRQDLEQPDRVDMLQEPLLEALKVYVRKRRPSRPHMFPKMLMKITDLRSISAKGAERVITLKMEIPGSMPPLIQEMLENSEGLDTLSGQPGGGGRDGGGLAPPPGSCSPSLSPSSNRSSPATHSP
Chain of RARγ (P13631 whole entry, species assumed, canonical isoform): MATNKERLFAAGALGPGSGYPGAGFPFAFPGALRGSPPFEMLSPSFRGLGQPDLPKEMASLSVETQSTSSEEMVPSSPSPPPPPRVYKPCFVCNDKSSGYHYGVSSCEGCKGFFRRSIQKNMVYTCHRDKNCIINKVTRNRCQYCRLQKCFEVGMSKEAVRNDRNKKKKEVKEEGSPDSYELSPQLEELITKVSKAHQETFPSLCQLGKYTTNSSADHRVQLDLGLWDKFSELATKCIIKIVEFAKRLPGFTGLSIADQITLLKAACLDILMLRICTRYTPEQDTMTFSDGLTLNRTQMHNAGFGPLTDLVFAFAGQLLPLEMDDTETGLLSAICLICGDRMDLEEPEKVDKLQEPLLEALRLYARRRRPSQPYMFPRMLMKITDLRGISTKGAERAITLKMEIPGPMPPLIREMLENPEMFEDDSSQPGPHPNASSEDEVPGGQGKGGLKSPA
Chain of RARβ (P10826 whole entry, species assumed, canonical isoform): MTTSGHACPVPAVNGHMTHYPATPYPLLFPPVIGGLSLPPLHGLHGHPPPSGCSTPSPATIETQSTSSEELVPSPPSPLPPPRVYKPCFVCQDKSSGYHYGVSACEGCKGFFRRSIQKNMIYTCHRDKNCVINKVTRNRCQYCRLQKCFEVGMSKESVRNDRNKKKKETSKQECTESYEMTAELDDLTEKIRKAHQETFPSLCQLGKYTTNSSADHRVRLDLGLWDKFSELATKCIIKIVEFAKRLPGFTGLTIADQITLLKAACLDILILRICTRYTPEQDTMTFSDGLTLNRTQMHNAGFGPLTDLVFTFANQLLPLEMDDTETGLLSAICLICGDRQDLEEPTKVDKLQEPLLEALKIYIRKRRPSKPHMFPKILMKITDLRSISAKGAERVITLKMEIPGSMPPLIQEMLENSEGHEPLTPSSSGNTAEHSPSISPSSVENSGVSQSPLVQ

Turning to `CC(/C=C/[C@@H]1C[C@]1(C)c1ccc2c(c1)C(C)(C)CCC2(C)C)=C\C(=O)O` [IRX4204, 3,7-dimethyl-6(S),7(S)-methano,7-[1,1,4,4-tetramethyl-1,2,3,4-tetrahydron-aphth-7-yl]2(E), 4(E) heptadienoic acid], the “activation of RXR homodimers” value in the data set with RXR homodimers was “specifically activate”. The “activation of LXR/RXR heterodimer” value in the data set with LXR/RXR is recorded as “does not activate”. The “activation of PPAR/RXR heterodimer” value with PPAR/RXR is “does not activate”. For the same molecule, the “activation of FXR/RXR heterodimer” value in the data set with FXR/RXR is “does not activate”. The systemic concentrations result in data set [1] (oral dosage 0.01 to 0.02 mg/m^2/day, estimated) is recorded as “at least 0.1 nM”; in data set [1] (oral dosage 20 mg/m^2/day, based on studies in humans), “below 200 nM”. Also, the “activation of Nurr1/RXR heterodimer” value with Nurr1/RXR heterodimer is reported as “specifically activates”. The “activation of RAR/RXR heterodimer” value in the data set on RAR/RXR is listed as “does not activate”. For the same molecule, the “RAR EC10 (concentration effective to cause a 10% of maximal activation of the RAR)” value at RARβ came to 200 nM; at RARγ, 200 nM; at RARα, 300 nM. The “growth inhibition as sole agent” value in [2] is recorded as “sensitive; also recorded: near maximal effect”. Also, the hypothyroidism entry is given as “does not result in hypothyroidism” in data set [3] (10 mg/day free acid) and “may induce a mild hypothyroidism” in data set [3] (20 mg/day free acid).

With `Cc1cc2c(cc1C1(c3ccc(C(=O)O)cn3)CC1)C(C)(C)CCC2(C)C` [LGD268], in data set [4], the “activation of one or more of PPAR/RXR, FXR/RXR, or LXR/RXR” value was “activates one or more of PPAR/RXR, FXR/RXR, or LXR/RXR”.

Consider `C=C(c1ccc(C(=O)O)cc1)c1cc2c(cc1C)C(C)(C)CCC2(C)C` [TARGRETIN, bexarotene], for which, in data set [5] (NSCLC), the “survival in pivotal Phase III clinical study” value is “did not show increased survival”. For the same molecule, the “results of Phase II studies” value in data set [5] (several Phase II studies in NSCLC) is on record as “Encouraging results”.

Turning to `CC(=O)O[C@H]1C(=O)[C@@]2(C)[C@H]([C@H](OC(=O)c3ccccc3)[C@]3(O)C[C@H](OC(=O)[C@H](O)[C@@H](NC(=O)c4ccccc4)c4ccccc4)C(C)=C1C3(C)C)[C@]1(OC(C)=O)CO[C@@H]1C[C@@H]2O` [paclitaxel, Paclitaxel, reference compound], the “growth inhibition as sole agent” value in [2] is “sensitive”.
